# Data taken from patent US5863952A, “Enantiomers of 1-(3,4-dichlorobenzyl)-2-methylaminoindane” (SmithKline Beecham plc, priority 1995, dated 1999).
# Assays:
# [1] = test system: histological damage in the CA1 region of the hippocampus after carotid artery occlusion; test: Gerbil BCAO model; type: in vivo, Mongolian gerbils; settings: 6 min carotid occlusion, 15 mg.kg-1 i.p. 30 minutes post-ischaemia then 5 mg.kg-1 b.i.d. for 3 days, histology on 5th day
# Method: Male Mongolian gerbils weighing between 60-80 g were anaesthetised with halothane, placed on a heated mat and the carotid arteries occluded for 6 min. After reperfusion, the animals were sutured and placed in an incubator for 2 hours to maintain body temperature during the acute recovery phase. The animals were then caged separately and on the 5th day after the day of surgery they were euthanased and the brains removed for histological analysis. The dosing protocol in these experiments was 15 mg.kg^-1 30 minutes post-ischaemia then 5 mg.kg^-1 b.i.d. for 3 days. Injections were given via the i.p. route, and the vehicle was distilled water.
# [2] = test system: voltage gated Ca2+ channel currents (remaining, predominantly N type, calcium current) in superior cervical ganglion neurons; test: Ca2+ current measurement, whole cell recording in cultured superior cervical ganglion neurons; type: cell-based; settings: 5 μM drug coapplied with 10 μM Nimodipine for three minutes; 10 mM Ba2+ as charge carrier; holding potential -80 mV, test potential 0 or +10 mV; Hydrochloride
# Method: Lett., 77, 55-60 (1987). Cells were plated onto laminin coated plastic tissue culture dishes and incubated at 37° C. until just prior to recording. Electrophysiological recordings were performed from 2 to 9 days after dissociation. The pipette (internal solution) contained in mM: CsCl, 130; HEPES, 10; EGTA, 10; MgCl2, 4; ATP, 2; buffered to pH 7.2 with CsOH. Cells were bathed in a normal Tyrodes solution before establishment of whole cell recording when the bathing solution was changed to one allowing isolation of Ca^2+ currents. The external solution for recording Ca^2+ channel currents contained in mM: BaCl2, 10; TEA-Cl, 130; glucose, 10; HEPES, 10; MgCl2, 1; buffered to pH 7.3 with TEA-OH. […] Whole cell currents were recorded using List EPC-7 amplifiers and stored, digitised for later analysis using PC based software similar to that described previously (Benham & Tsien, Journal of Physiology (1988), 404, 767-784). Peak voltage gated Ca^2+ channel currents of up to 10 nA were recorded using 10 mM Ba^2+ as charge carrier. […] The rundown rate was measured in control conditions and extrapolated through the time of drug application to derive a rundown corrected control value. Once a constant calcium current had been recorded for 4 successive pulses (1 minute) 10 μM Nimodipine, a dihydropyridine, was applied to the cell to block L type calcium current. […]
# [3] = test system: histological damage in the cerebral cortex after mid-cerebral artery occlusion; test: Mouse MCAO model; type: in vivo, CD1 mice; settings: 10 mg.kg-1 i.p. 30 minutes post-ischaemia then 10 mg.kg-1 b.i.d. for 3 days, histology on 4th day
# Method: Male CD1 mice weighing 25-29 g were anaesthetised with tribromoethanol, placed on a heat-pad and maintained at 37° C. The mid-cerebral artery was cauterised and divided via the intra-cranial route. On completion of surgery the mice were placed in an incubator for 2 hours to maintain body temperature during the acute recovery phase. On the 4th day the mice were euthanased and the brains removed for histological analysis. The dosing protocol in these experiments was 10 mg.kg^-1 30 minutes post-ischaemia then 10 mg.kg^-1 b.i.d. for 3 days. Injections were given via the i.p. route, and the vehicle was distilled water.
structure (smiles),measurement,setting,value
"CN[C@H]1Cc2ccccc2[C@H]1Cc1ccc(Cl)c(Cl)c1.Cl (single isomer, unassigned) [Example 1, (+)cis-1-(3,4-Dichlorobenzyl)-2-methylaminoindane Hydrochloride]",attenuation of histological damage in the CA1 region of the hippocampus compared with ischaemic vehicle-treated animals,[1],significant attenuation of the histological damage
same,inhibition of plateau Ca2+ current,[2],95%
same,attenuation of histological damage in the cerebral cortex compared with ischaemic vehicle-treated animals,[3],significant attenuation of the histological damage
"CN[C@H]1Cc2ccccc2[C@H]1Cc1ccc(Cl)c(Cl)c1.Cl (single isomer, unassigned) [Example 2, (-)cis-1-(3,4-Dichlorobenzyl)-2-methylaminoindane Hydrochloride]",attenuation of histological damage in the CA1 region of the hippocampus compared with ischaemic vehicle-treated animals,[1],significant attenuation of the histological damage
same,inhibition of plateau Ca2+ current,[2],99%
same,attenuation of histological damage in the cerebral cortex compared with ischaemic vehicle-treated animals,[3],significant attenuation of the histological damage
